Results as given in patent US12643912B2, “Macrocyclic compounds, a process for their preparation and pharmaceutical compositions containing them” (LES LABORATOIRES SERVIER, priority 2020, dated 2026).

These compounds were tested on Nrf2 (Keap1-NRF2 nuclear translocation) (assay: U2OS translocation assay (PathHunter U2OS Keap1-NRF2 Nuclear Translocation Cell Line)). Conditions: Homo sapiens, U2OS, 3 h, read-out: CELLULAR U2OS EC50 (nM), U2OS Keap1-NRF2 nuclear translocation cells, 3 h incubation, luminescence, normalized between 1% DMSO and 10 μM andrographolide.
Assay type: cell-based
Procedure: EXAMPLE 84: U2OS—TRANSLOCATION ASSAY
U2OS cell have been stably transduced using MMLV-derived retroviral vector, to overexpress Nrf2-Enzyme Donor fusion protein, and Acceptor Enzyme in the nucleus (PathHunter® U2OS Keap1-NRF2 Nuclear Translocation Cell Line, Ref.93-0821C3, DiscoverX).
PathHunter U2OS cells were grown in Minimum Essential Medium (MEM) (Ref.30-2003, ATCC), 10% FBS (Ref.P30-193306, PanBiotech), 500 μg/ml Geneticine, 250 μg/ml hygromycine, 0.25 μg/ml puromycine (10131-027, 10687-010 and Ref.A1113802 respectively, Life Technologies).
The night before experiment, cells were harvested using Tryple Xpress (Ref.126905, Bibco) for 5 min at 37° C., resuspended in Opti-MEM™ (Ref.31985-047, Gibco), 1% FBS (Ref.P30-193306, PanBiotech) and then plated into 384 wells plates (Ref.6007680, Perkin Elmer) at the density of 7 500 cells/well in 20 μl. Cell are stored over night at 37° C., 5% CO2 until used. Compounds in 100% DMSO (0.315 μl/well) were resuspended in 20 μl MEM, 1% FBS, 3.4% DMSO. Compounds and andrographolide (10 μM final concentration; Ref.365645-500MG, Aldrich)) as positive control, were dispensed on cell, 5 μl /well, and then incubated for 3 h at 37° C. and 5% CO2. After incubation, Path hunter reagents were dispensed on cells (12 μl /well, Ref.93-0001, DiscoverX) and incubated for 60 min at room temperature in the dark.
Then, luminescence signal was measured using multimodal reader (Pherastar, BMG Labtech). Data were normalized between 1% DMSO (basal signal) and 10 μM andrographolide (positive signal) and analyzed using Activity Base software.

First: COc1ccc2cc1[C@H](C)N1Cc3cc(ccc3OS1(=O)=O)OCCCCCn1nnc3c(C)c(ccc31)[C@H]2CC(=O)O [Example 31a, [(2S,8S)-4-methoxy-2,32-dimethyl-28,28-dioxo-22,27-dioxa-28λ^6-thia-1,14,15,16-tetraazahexacyclo[21.5.3.1^3,70.1^9,130.0^12,160.0^26,30]tritriaconta-3(33),4,6,9(32),10,12,14,23,25,30-decaen-8-yl]acetic acid]
Second: COc1ccc2cc1[C@@H](C)N1Cc3cc(ccc3OS1(=O)=O)OCCCCCn1nnc3c(C)c(ccc31)[C@H]2CC(=O)O [Example 31b, [(2R,8S)-4-methoxy-2,32-dimethyl-28,28-dioxo-22,27-dioxa-28λ^6-thia-1,14,15,16-tetraazahexacyclo[21.5.3.1^3,70.1^9,130.0^12,160.0^26,30]tritriaconta-3(33),4,6,9(32),10,12,14,23,25,30-decaen-8-yl]acetic acid]
The EC50 of the first is 52-fold higher: 1430 nM for the first, 27.4 nM for the second. The second is the more potent here.

`Cc1ccc2cc1CN1Cc3cc(ccc3OS1(=O)=O)OCCCCn1nnc3c(C)c(cc(-c4ccccc4)c31)[C@@H]2CC(=O)O` (single isomer, unassigned) [Example 49] and `COc1cc2cc(c1Cl)CN1Cc3cc(ccc3OS1(=O)=O)OCCCCn1nnc3c(C)c(ccc31)C2CC(=O)O` (centres unmarked) [Example 38a, [4-Chloro-5-methoxy-31-methyl-27,27-dioxo-21,26-dioxa-27λ^6-thia-1,14,15,16-tetraazahexacyclo[20.5.3.1^3,70.1^9,130.0^12,160.0^25,29]dotriaconta-3(32),4,6,9(31),10,12,14,22,24,29-decaen-8-yl]acetic acid] are within 1.5-fold of each other in EC50: 1620 nM for the first, 2080 nM for the second.

Going from `Cc1ccc2cc1CN1Cc3cc(ccc3OS1(=O)=O)CNC(=O)CCn1nnc3c(C)c(ccc31)C2CC(=O)O` (racemic) [Example 69, [4,31-Dimethyl-19,27,27-trioxo-26-oxa-27λ^6-thia-1,14,15,16,20-pentaazahexacyclo[20.5.3.1^3,70.1^9,130.0^12,160.0^25,29]dotriaconta-3(32),4,6,9(31),10,12,14,22,24,29-decaen-8-yl]acetic acid] to `COc1ccc2cc1[C@@H](C)N1Cc3cc(ccc3OS1(=O)=O)OCCOCCn1nnc3c(C)c(ccc31)[C@H]2CC(=O)O` [Example 41a], the EC50 falls from > 3160 nM to 716 nM. The second is the more potent here.

Same assay, conditions: read-out: CELLULAR U2OS EC50; U2OS Keap1-NRF2 nuclear translocation cells, 3 h incubation, luminescence, normalized between 1% DMSO and 10 μM andrographolide

Compared with `Cc1ccc2cc1CN1Cc3cc(ccc3OS1(=O)=O)Oc1ccccc1NCCn1nnc3c(C)c(ccc31)C2CC(=O)O` (single isomer, unassigned) [Example 70b, [4,36-Dimethyl-32,32-dioxo-26,31-dioxa-32λ^6-thia-1,14,15,16,19-pentaazaheptacyclo[25.5.3.1^3,70.1^9,130.0^12,160.0^20,250.0^30,34]heptatriaconta-3(37),4,6,9(36),10,12,14,20,22,24,27,29,34-tridecaen-8-yl]acetic acid], `Cc1ccc2cc1CN1Cc3cc(ccc3OS1(=O)=O)OCc1ccccc1/C=C/n1nnc3c(C)c(ccc31)C2CC(=O)O` (single isomer, unassigned) [Example 61a, [(17E)-4,36-dimethyl-32,32-dioxo-26,31-dioxa-32λ^6-thia-1,14,15,16-tetraazaheptacyclo[25.5.3.1^3,70.1^9,130.0^12,160.0^19,240.0^30,34]heptatriaconta-3(37),4,6,9(36),10,12,14,17,19,21,23,27,29,34-tetradecaen-8-yl]acetic acid] is lower in EC50: > 3160 nM for the first, 717 nM for the second. The second is the more potent here.

Compared with `Cc1ccc2cc1CN1Cc3cc(ccc3OS1(=O)=O)OCCCCn1nnc3c(C)c(ccc31)C2C(C)(C)C(=O)O` (single isomer, unassigned) [Example 74a, 2-[4,31-Dimethyl-27,27-dioxo-21,26-dioxa-27λ^6-thia-1,14,15,16-tetraazahexacyclo[20.5.3.1^3,70.1^9,130.0^12,160.0^25,29]dotriaconta-3(32),4,6,9(31),10,12,14,22,24,29-decaen-8-yl]-2-methylpropanoic acid], `Cc1ccc2cc1CN1Cc3cc(ccc3OS1(=O)=O)OCCCCn1nnc3c(C)c(ccc31)C2C(C)(C)C(=O)Nc1cncnc1` (single isomer, unassigned) [Example 81b, 2-[4,31-Dimethyl-27,27-dioxido-21,26-dioxa-27-thia-1,14,15,16-tetraazahexacyclo[20.5.3.1^3,70.1^9,130.0^12,160.0^25,29]dotriaconta-3(32),4,6,9(31),10,12,14,22,24,29-decaen-8-yl]-2-methyl-N-(pyrimidin-5-yl)propanamide] is higher in EC50: 6.11 nM for the first, > 3160 nM for the second. The first is the more potent here.

First: Cc1ccc2cc1CN1Cc3cc(ccc3OS1(=O)=O)OCCOCCn1nnc3c(C)c(ccc31)C2CC(=O)O (single isomer, unassigned) [Example 78b, [4,32-Dimethyl-28,28-dioxo-19,22,27-trioxa-28λ^6-thia-1,14,15,16-tetraazahexacyclo[21.5.3.1^3,70.1^9,130.0^12,160.0^26,30]tritriaconta-3(33),4,6,9(32),10,12,14,23,25,30-decaen-8-yl]acetic acid]
Second: Cc1ccc2cc1CN1Cc3c(ccc(c3Cl)OCCOCCn3nnc4c(C)c(ccc43)C2CC(=O)O)OS1(=O)=O (single isomer, unassigned) [Example 76b, [31-Chloro-4,32-dimethyl-28,28-dioxo-19,22,27-trioxa-28λ^6-thia-1,14,15,16-tetraazahexacyclo[21.5.3.1^3,70.1^9,130.0^12,160.0^26,30]tritriaconta-3(33),4,6,9(32),10,12,14,23,25,30-decaen-8-yl]acetic acid]
The EC50 of the first is 33-fold higher: 873 nM for the first, 26.2 nM for the second.

Compared with `Cc1ccc2cc1CN1Cc3cc(ccc3OS1(=O)=O)OCCCCn1nnc3c(C)c(ccc31)C2C(C)(C)C(=O)Nc1cncnc1` (single isomer, unassigned) [Example 81a, 2-[4,31-Dimethyl-27,27-dioxido-21,26-dioxa-27-thia-1,14,15,16-tetraazahexacyclo[20.5.3.1^3,70.1^9,130.0^12,160.0^25,29]dotriaconta-3(32),4,6,9(31),10,12,14,22,24,29-decaen-8-yl]-2-methyl-N-(pyrimidin-5-yl)propanamide], `COc1cc2cc(c1C)CN1Cc3cc(ccc3OS1(=O)=O)OCCCCn1nnc3c(C)c(ccc31)C2CC(=O)O` (single isomer, unassigned) [Example 30b, [5-Methoxy-4,31-dimethyl-27,27-dioxo-21,26-dioxa-27λ^6-thia-1,14,15,16-tetraazahexacyclo[20.5.3.1^3,70.1^9,130.0^12,160.0^25,29]dotriaconta-3(32),4,6,9(31),10,12,14,22,24,29-decaen-8-yl]acetic acid] is 8.6-fold higher in EC50: 275 nM for the first, 2360 nM for the second. The first is the more potent here.
